Results: publication PMC8206078, “Identification of pyrogallol as a warhead in design of covalent inhibitors for the SARS-CoV-2 3CL protease” (Nature Communications, 2021)
Where “and” joins values, the source holds several entries; their conditions need not be identical. Equal entries are not always repeated. Where two headings read alike, the source gives them in different places.

Assays:
[1] = tested on: SARS-CoV-2 replication in Vero E6 cells; assay: microbe, parasite or virus in culture; type: cell-based
[2] = tested on: SARS-CoV-2 replication in Vero E6 cells; conditions: cited from earlier work
[3] = for myricetin consumed: GSH, 600 min
[4] = male, ICR, in vivo, po, 30 mg/kg
[5] = biological target: chymotrypsin from bovine pancreas (Bos taurus, UniProt P00766); assay: biochemical
[6] = in vitro; conditions: African green monkey
[7] = biological target: SARS-CoV-2 PLpro (Severe acute respiratory syndrome coronavirus 2, UniProt P0DTD1); type: biochemical
[8] = in vivo; conditions: male, ICR, mouse; for AUC(0-inf): AUCINF_obs; for AUC(0-t): AUClast; for MRT inf: MRTINF_obs; for half-life: T1/2
[9] = tested on: Vero E6 cells
[10] = PK study in mice; conditions: mouse; for half-life: male, ICR, plasma; for T1/2: individual animals
[11] = Severe acute respiratory syndrome coronavirus 2, Vero C1008, 24 h
[12] = Severe acute respiratory syndrome coronavirus 2, Vero C1008
[13] = iv, 10 mg/kg, Concentration in mouse plasma, Mean
[14] = po, 30 mg/kg, Concentration in mouse plasma
[15] = po, 30 mg/kg, Concentration in mouse plasma, Mean

For COc1cc(O)c2c(=O)c(O)c(-c3cc(O)c(O)c(O)c3)oc2c1 [compound 3, 7-O-methyl myricetin], the EC50 [1, 11] was 12.6 µM.

In the case of O=c1cc(-c2ccccc2)oc2cc(O)c(O)c(O)c12 [baicalein, reference compound], the EC50 [2] is given as 2.94 µM and the “adduct with GSH” value [3] is given as “no adduct of GSH with baicalein was detected”.

O=c1c(O)c(-c2cc(O)c(O)c(O)c2)oc2cc(OP(=O)(Oc3ccccc3)Oc3ccccc3)cc(O)c12 [compound 9] gave an EC50 [1, 11] of 3.15 µM.

In the case of O=c1c(O)c(-c2cc(O)c(O)c(O)c2)oc2cc(O)cc(O)c12 [myricetin, 3,5,7,3′,4′,5′-hexahydroxyflavone], the T1/2 ([4]; mouse) is reported as 26.4 min, the IC50 [5] is reported as 132 ± 10.6 µM and the “times weaker than against 3CLpro” value [5] is reported as “more than 100”. The EC50 [1, 11] was 8 µM, the CC50 [6] was > 200 µM and the “times weaker than against 3CLpro” value [7] was “more than 100”. For the same compound, the MRT ([8]; ip, 10 mg/kg) was 5.4 min, the AUC(0-inf) ([8]; ip, 10 mg/kg) was 1040 ng·h/mL and the AUC(0-t) ([8]; ip, 10 mg/kg) was 1090 ± 103 ng·h/mL. The Cmax ([8]; ip, 10 mg/kg) was 1800 ± 346 ng/mL, the MRT inf ([8]; ip, 10 mg/kg) was 66.6 min and the half-life ([8]; ip, 10 mg/kg) was 126 ± 1.2 min. The MRT ([8]; po, 30 mg/kg) was 50.4 min, the AUC(0-inf) ([8]; po, 30 mg/kg) was 8.51 ng·h/mL and the AUC(0-t) ([8]; po, 30 mg/kg) was 6.07 ng·h/mL. It also gave a Cmax ([8]; po, 30 mg/kg) of 8.59 ng/mL, an MRT inf ([8]; po, 30 mg/kg) of 50.4 min and a half-life ([8]; po, 30 mg/kg) of 26.4 min. The Tmax ([8]; po, 30 mg/kg, Tmax) was 30 min, the myricetin consumed ([3]; absence of oxygen) was 11% and the “Ln(%parent)” value ([3]; myricetin reacting with glutathione, 0h) was 4.593 and 4.572 and 4.649. The “Ln(%parent)” value ([3]; myricetin reacting with glutathione, 2h) was 4.472 and 4.529 and 4.531, the “Ln(%parent)” value ([3]; myricetin reacting with glutathione, 4h) was 4.27 and 4.376 and 4.3091 and the “Ln(%parent)” value ([3]; myricetin reacting with glutathione, 6h) was 4.107 and 4.203 and 4.174. The “Ln(%parent)” value ([3]; myricetin reacting with glutathione, 8h) was 3.902 and 4.0179 and 3.984, the “Ln(%parent)” value ([3]; myricetin reacting with glutathione, 10h) was 3.729 and 3.812 and 3.826 and the kpseudo1st ([3]; myricetin reacting with glutathione, single independent experiment) was 0.001475 and 0.001311 and 0.001403. It also gave a myricetin consumed ([3]; presence of oxygen) of 65%.

In the case of O=C1c2c(O)cc(O)cc2O[C@H](c2cc(O)c(O)c(O)c2)[C@H]1O [dihydromyricetin], the EC50 [1] is reported as 13.9 µM and 9.94 µM and 13.7 µM and 14 µM and 17.6 µM, the EC50 [1, 12] is reported as 12.3 µM and the EC50 [1, 11] is reported as 13.6 µM.

For O=C1c2c(O)cc(OP(=O)(Oc3ccccc3)Oc3ccccc3)cc2O[C@H](c2cc(O)c(O)c(O)c2)[C@H]1O [compound 10], the EC50 [1] was 6.99 µM and 8.24 µM and 10.2 µM and 10.4 µM and 8.4 µM, the EC50 [1, 12] was 9.94 µM and the EC50 [1, 11] was 9.03 µM.

For CCC(CC)COC(=O)[C@H](C)N[P@](=O)(OC[C@H]1O[C@@](C#N)(c2ccc3c(N)ncnn23)[C@H](O)[C@@H]1O)Oc1ccccc1 [remisivir], the EC50 ([1]; read-out: EC50 (µM) Mean) was 3.68 µM, the “inhibition ratio (%)” value ([9]; concentration 2.34375 (unit not given)) was 99.5877% and 102.33% and 102.223% and the “inhibition ratio (%)” value ([9]; concentration 4.6875 (unit not given)) was 100.126% and 103.513% and 104.159%. For the same compound, the “inhibition ratio (%)” value ([9]; concentration 9.375 (unit not given)) was 103.244% and 98.6198% and 99.2113%, the “inhibition ratio (%)” value ([9]; concentration 18.75 (unit not given)) was 101.362% and 100.126% and 95.6085% and the “inhibition ratio (%)” value ([9]; concentration 37.5 (unit not given)) was 102.707% and 103.352% and 97.8132%. For the same compound, the “inhibition ratio (%)” value ([9]; concentration 75 (unit not given)) was 97.383% and 95.0708% and 98.7274%, the “inhibition ratio (%)” value ([9]; concentration 150 (unit not given)) was 83.7247% and 84.1011% and 85.4454% and the “inhibition ratio (%)” value ([9]; concentration 300 (unit not given)) was 42.4807% and 43.2336% and 43.126%.

For COc1cc(O)c2c(c1)O[C@H](c1cc(O)c(O)c(O)c1)[C@@H](O)C2=O [compound 7, 7-O-methyl dihydromyricetin], the “Concentration in mouse plasma” value ([4]; 8 h) was 11.5 ng/mL, the “inhibition ratio (%)” value ([1]; 6.25 µM) was 21.811% and 15.067% and 12.154% and the “inhibition ratio (%)” value ([1]; 25 µM) was 58.083% and 57.749% and 55.409%. For the same compound, the “inhibition ratio (%)” value ([1]; 50 µM) was 75.679% and 73.921% and 74.205%, the “inhibition ratio (%)” value ([1]; 200 µM) was 99.619% and 99.626% and 99.565% and the EC50 [1, 11] was 11.5 µM. For the same compound, the half-life ([10]; iv, 10 mg/kg, T1/2, mice, i.v. 10 mg/kg) was 34.8 ± 37.8 min, the half-life ([10]; iv, 10 mg/kg, T1/2, mouse, i.v. 10 mg/kg, mean) was 34.8 min and the half-life ([10]; po, 30 mg/kg, T1/2, mice, p.o. 30 mg/kg) was 104 min. For the same compound, the half-life ([10]; po, 30 mg/kg, T1/2, mouse, p.o. 30 mg/kg, mean) was 104 min, the T1/2 ([10]; i.v. 10 mg/kg, 10 mg/kg) was 7.2 min and 97.2 min and 5.4 min and 40.2 min and 22.8 min and the T1/2 ([10]; p.o. 30 mg/kg, 30 mg/kg) was 111 min and 187 min and 86.4 min and 78.6 min and 58.8 min. The bioavailability [8] was 18.1%, the MRT ([8]; iv, 10 mg/kg) was 41.4 ± 51.6 min and the concentration at 0.05 h [8, 13] was 3190 ng/mL. For the same compound, the concentration at 2 h [8, 13] was 62.4 ng/mL, the concentration at 4 h [8, 13] was 23.6 ng/mL and the concentration at 8 h [8, 13] was 0 ng/mL. For the same compound, the concentration at 24 h [8, 13] was 0 ng/mL, the MRT ([8]; po, 30 mg/kg) was 113 min and the Tmax ([8]; po, 30 mg/kg) was 15 min. For the same compound, the bioavailability ([8]; po, 30 mg/kg) was 18.1%, the AUC(0-inf) ([8]; po, 30 mg/kg) was 588 ng·h/mL and the AUC(0-t) ([8]; po, 30 mg/kg) was 510 ng·h/mL. The concentration at 0.5 h [8, 14] was 200 ng/mL, the concentration at 1 h [8, 14] was 112 ng/mL and the concentration at 8 h [8, 14] was 10.1 ng/mL. It also gave a concentration at 0.5 h [8, 15] of 279 ng/mL, a concentration at 1 h [8, 15] of 118 ng/mL and a concentration at 2 h [8, 15] of 61.2 ng/mL. For the same compound, the concentration at 4 h [8, 15] was 32.9 ng/mL, the concentration at 8 h [8, 15] was 4.32 ng/mL and the concentration at 24 h [8, 15] was 0 ng/mL.

With N-phenylacrylamide [reference compound] the kpseudo1st [3] was 0.02117 and 0.01952 and 0.0207.

With CCC(CC)COC(=O)[C@H](C)N[P@](=O)(OC[C@H]1O[C@@](C#N)(c2ccc3c(N)ncnn23)[C@H](O)[C@@H]1O)Oc1ccccc1 [remdesivir, reference compound] the EC50 [1, 11] was 3.68 µM.

In the case of O=c1c(O)c(-c2cc(O)c(O)c(O)c2)oc2cc(OCC3CCCC3)cc(O)c12 [compound 6, 7-O-cyclopentylmethyl-myricetin], the “inhibition ratio (%)” value ([1]; 100 µM) is reported as 99.992% and 99.991% and 99.989% and 98.833% and 95.7336% and 99.607% and 99.987% and 99.985% and the EC50 ([1]; read-out: EC50) is reported as 10.1 µM and 7.07 µM and 5.5 µM.
